Tests used:
[1] = target: T1, recombinant human GzmA (hGzmA) (Homo sapiens, UniProt P12544); assay: In-gel fluorescence labeling of recombinant active hGzmA; type: biochemical; conditions: hGzmA 100 nM preincubated with inhibitor 5 μM 2 h, then ABPs 3–5 50 nM 2 h, 37 °C
T1 construct: active, mature form; purchased Enzo Life Sciences ALX-201-118-C010
T1 sequence (P12544 29-262): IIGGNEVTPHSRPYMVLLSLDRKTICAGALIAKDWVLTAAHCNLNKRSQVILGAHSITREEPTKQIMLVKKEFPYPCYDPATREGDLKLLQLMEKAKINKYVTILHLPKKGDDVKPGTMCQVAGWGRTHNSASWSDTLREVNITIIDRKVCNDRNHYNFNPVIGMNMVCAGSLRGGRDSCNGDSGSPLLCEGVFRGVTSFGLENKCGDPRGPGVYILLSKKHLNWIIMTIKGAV
Protocol: Figure 3 GzmA ABPs covalently and competitively label active human and mouse GzmA. […] Recombinant hGzmA (100 nM) was incubated with varying concentrations of each ABP at 37 °C. B) Competitive labeling of hGzmA. Recombinant hGzmA (100 nM) was preincubated with covalent inhibitors 1 or 2 (5 μM) for 2 h, followed by labeling with ABPs 3 –5 (50 nM) for 2 h at 37 °C. Note: Pro‐form of hGzmA (the first lane) is not effectively stained by SYPRO‐Ruby. C) Structure of qABP 6. D) Quenched natures of 5 and 6. […] F) Labeling of mGzmA (1 μM) with 5 and 6 (1 μM, 24 h, 37 °C). Protein samples were analyzed by SDS‐PAGE and in‐gel fluorescence scanning for Cy5 signal and SYPRO Ruby staining. […]
C. In-gel fluorescence imaging
For recombinant enzyme labeling, working solutions of hGzmA (purchased from R&D Systems, Cat. No. 2905-SE-010 for pro-from and Enzo Life Sciences, Cat. No.: ALX-201-118-C010 for active, mature form) were prepared by diluting a 12.6 µM stock in the following assay buffer: 50 […]
mM Tris, 100 mM NaCl, 5 mM CaCl2, 0.01% (v/v) Tween-20, pH 7.5. […]
In-gel fluorescence and
SYPRO-Ruby staining images were acquired on a Typhoon FLA9500 instrument, while western blot images were acquired on an AMHERST ImageQuant 800 instrument.
Conditions for probe/inhibitor treatment for in-gel fluorescence analysis: Inhibitors and probes were incubated with active (or pro-) GzmA followed by treatment with 4X SDS reducing sample buffer. Samples were then heated to 100 °C for 5 min, brought to room temperature, and centrifuged. 20 µL of each sample was loaded onto a 15% polyacrylamide gel, which was then subjected to electrophoresis followed by the acquisition of in-gel fluorescence images. GzmA labeling was confirmed by western blotting, while protein loading was confirmed with SYPRO-Ruby staining. Incubation conditions for each figure/experiment are described below:
Conditions for Figure 3A: For labeling comparison between 3, 4, and 5, 100 nM of human GzmA was incubated with various concentrations of each probe for 2 h at 37 °C. For time-dependent labeling, 50 nM of 5 was incubated with 100 nM of human GzmA at 37 °C for the specified durations. Final reaction volume for both was 20 µL.
Conditions for Figure 3B: 100 nM of human GzmA was incubated with DMSO or 5 µM of 1 or 2 for 2 h at 37 °C in Eppendorf tubes. 0.5 µL of a 2 µM solution of 3, 4, or 5 in DMSO was then spiked into the Eppendorf tube, yielding a final probe concentration of 50 nM. The solution was incubated for another 2 h at 37 °C. Final reaction volume was 20 µL.
Conditions for Figure 3E: 100 nM of human GzmA was incubated with various concentrations of 5 or 6, respectively, for 2 h at 37 °C. Final reaction volume was 20 µL.
Conditions for Figure 3F: 1 µM of mouse GzmA was incubated with 1 µM of 5 or 6, respectively, for 24 h at 37 °C. Final reaction volume was 20 µL.
Conditions for Figure 4A: 1 mg/mL of lysates was incubated with various concentrations of 5 or 6, respectively, for 1 h at 37 °C.
Conditions for Figure 4C: Various concentrations of probes 3-6 were incubated with 1x10^6 NK-92 cells for 2 h at 37 °C in a humidified incubator. Cells were centrifuged, washed with PBS (x2) and lysed with ~40 µL of ice-cold RIPA buffer. Lysates were collected, protein concentration was measured with PIERCE BCA protein assay and samples were analyzed with in-gel fluorescence and GzmA western blotting. […]
All flow cytometry data were collected on BD LSRFortessa and FACSymphony A5 Cell Analyzers and analyzed with FlowJo software. Briefly, cells were processed according to the intended protocols for each experiment. Thereafter, cells were pelleted, fixed in the dark for 20 min at room temperature (Fixation buffer: BioLegend #420801), and pelleted again by centrifugation. Fixed cells were then resuspended in 1x intracellular staining perm wash buffer (BioLegend #421002), followed by centrifugation two times. Fixed/Permeabilized cells were then resuspended in […]

hGzmA = target: T2, hGzmA (Homo sapiens, UniProt P12544); assay: Granzyme A cleavage assay (fluorogenic substrate); type: biochemical; conditions: hGzmA 50 nM, inhibitor 200 nM, substrate 100 μM, 50 mM Tris, 150 mM NaCl, 0.01% Triton X-100 pH 8, 15 h, 37 °C, Ex/Em 380/460 nm, mean ± SD n = 3
T2 construct: active, mature form; purchased Enzo Life Sciences ALX-201-118-C010
T2 sequence (P12544 29-262): T1 sequence (P12544 29-262)
Protocol: Figure 1 GzmA phosphonate and phosphinate inhibitors. A) Synthesis of phosphonate warhead I‐3. B) Synthesis of phosphosphinate warhead I‐4. C) Synthesis of Ac‐IGNR‐PO(OPh)2 1 and Ac‐IGNR‐PO(OPh)Ph 2. D) GzmA inhibition. hGzmA (50 nM) was incubated with inhibitor 1 or 2 (200 nM) and GzmA fluorogenic substrate (Ac‐Oic‐Gly‐Pro‐Arg‐PABA‐MU, 100 μM) for 15 h at 37 °C. Fluorescence at Ex/Em: 380/460 nm was recorded for residual GzmA proteolytic activity.
A. Granzyme A cleavage assay
Briefly, hGzmA (50 nM) was incubated with either inhibitor 1 or 2 (200 nM), and GzmA fluorogenic substrate […] (100 µM) in 50 mM Tris, 150 mM NaCl, 0.01% Triton X-100 (pH 8) for 15 hr at 37 °C. Recorded fluorescence at Ex/Em: 380/460 nm for residual GzmA […]
Cat. No. CRL-2570) and 4T1 (ATCC Cat. No. CRL-2539) cells were cultured in RPMI supplemented with 10% fetal bovine serum (FBS), 1% penicillin/streptomycin (PS), and 2 mM L-glutamine, while HEK293T and MDA-MB-231 cells (ATCC Cat. No. HTB-26) were cultured in DMEM supplemented likewise as described above. […] The supernatant was collected, and protein concentration was measured using a Pierce BCA protein assay. […]
C. In-gel fluorescence imaging […]
Conditions for probe/inhibitor treatment for in-gel fluorescence analysis: Inhibitors and probes were incubated with active (or pro-) GzmA followed by treatment with 4X SDS reducing sample buffer. […]

Structure (SMILES)	Blocking of ABP labeling of hGzmA by inhibitor pretreatment [1]	Inhibition of GzmA‐mediated cleavage of a fluorogenic substrate (residual GzmA proteolytic activity) (hGzmA)
CC[C@H](C)[C@H](NC(C)=O)C(=O)NCC(=O)N[C@@H](CC(N)=O)C(=O)NC(CCCNC(=N)N)P(=O)(Oc1ccccc1)Oc1ccccc1 (stereo partly shown) [compound 1, Ac‐IGNR‐PO(OPh)2]	competitively blocked	comparable potency
CC[C@H](C)[C@H](NC(C)=O)C(=O)NCC(=O)N[C@@H](CC(N)=O)C(=O)NC(CCCNC(=N)N)P(=O)(Oc1ccccc1)c1ccccc1 (stereo partly shown) [compound 2, Ac‐IGNR‐PO(OPh)Ph]	competitively blocked	comparable potency

Source: publication PMC12703428, “Development of Granzyme A Turn‐ON Fluorescent Activity‐Based Probes” (Chembiochem, 2025)
